Data set [1] deals with striatal dopamine receptors. The experiment in a line: in vivo. Type of data set: in vivo, rat. To be noted: for ED50 for antagonism of amphetamine-induced rotation (R): rats with unilateral 6-hydroxydopamine lesion, i.p.; for R/A ratio: rat. The text has this: (§1) There is evidence that antipsychotic drugs cause EPS by interfering with neurotransmission in a nigrostriatal dopaminergic pathway. It is thought that they block dopamine receptors in the neostriatum. Therefore, the ability of a drug to block striatal dopamine receptors is a measure of its EPS liability.
(§2) This treatment causes degeneration of the nigrostriatal dopaminergic pathway accompanied by a marked decrease in the dopamine content of the neostriatum on the side of the lesion. Animals with this lesion develop postural and motor asymmetries which are altered by drugs which affect dopaminergic activity. Amphetamine, which releases dopamine and norepinephrine from catecholaminergic neurons, causes these rats to rotate unidirectionally toward the side of the lesion; i.e., ipsilaterally. Since there is a much larger amount of dopamine to be released by amphetamine from the intact nigrostriatal neurons on the non-lesioned side than from those remaining on the lesioned side, the rotational behavior is apparently due to a preponderance of activation of striatal dopamine receptors on the intact side. The ability of a drug to antagonize the rotational behavior is therefore a measure of its ability to block striatal dopamine receptors and is indicative of its potential to produce EPS.
(§3) To predict the potential ability of a drug to cause EPS, the ratio of its ED50 (i.p.) for antagonism of amphetamine-induced rotation to its ED50 (i.p.) for blockade of shock avoidance acquisition in the rat, a procedure for assessing antipsychotic activity, (R/A ratio) is calculated. The ED50 values of some clinically established antipsychotics in the avoidance and rotational tests and the R/A ratios are presented in Table I.

A further data set is described as follows: in vivo. Type of data set: in vivo, rat. The note with it: rat, in vivo, ip, rat.
Description: as §1, §2, §3

Data set [2] deals with shock avoidance acquisition. The data set can be described thus: Blockade (antagonism) of shock avoidance acquisition in rats. Type of data set: in vivo. The note with it: Rattus norvegicus, ip, read-out: ED50 for antagonism (blockade) of avoidance acquisition (A). On the procedure:
as §3

The conditions of data set [3]: compared with chlorpromazine; cited from earlier work.
Setting [4] is: ED50 (i.p.) rotation / ED50 (i.p.) avoidance, high ratio predicts low potential to produce EPS, read-out: R/A ratio.

Structures can show the parent of a compound that is named as a salt. Where two headings read alike, the source gives them in different places.

Results on seven compounds are retold here after patent publication US4073912A, “Piperidylidene derivatives of benzo-fused xanthenes, thioxanthenes and dibenzoxepins and antipsychotic use thereof” (priority 1976, dated 1978).

One may read the ED50 as the midpoint of the dose-response relation.

`CN1CCC(=C2c3ccccc3Oc3ccc4ccccc4c32)CC1` [12-(1-methyl-4-piperidylidene)-12H-benzo a!xanthene hydrochloride]: the EPS liability result in data set [1] (indicated by R/A ratio of 10) is “essentially free of EPS liability”. In addition, the “ED50 for antagonism of amphetamine-induced rotation (R)” value (shortened to “ED50 for antagonism”) in data set [1] is given as 6.4 mg/kg. Besides, in the data set “in vivo” (setting [4]), the selectivity ratio was 10. Moreover, in data set [2] (rats, i.p.), the ED50 stood at 0.64 mg/kg.
With `CN(C)CCCN1c2ccccc2Sc2ccc(Cl)cc21` [Chlorpromazine], in data set [1], the “ED50 for antagonism” value turned out to be 2.0 mg/kg. In addition, the selectivity ratio in “in vivo” (setting [4]) was 1.3. Further, the ED50 in data set [2] turned out to be 1.5 mg/kg.
For `CN1CCN(C2=Nc3cc(Cl)ccc3Nc3ccccc32)CC1` [Clozapine], the selectivity ratio in “in vivo” (read-out: R/A ratio) stood at 3.8. For the same compound, the “propensity to cause EPS” value in data set [3] is recorded as “produce EPS to a lesser extent than chlorpromazine”. For the same compound, the ED50 in data set [2] (rats, i.p.) was found to be 6.6 mg/kg.
On to `O=C(CCCN1CCC(O)(c2ccc(Cl)cc2)CC1)c1ccc(F)cc1` [Haloperidol], for which the R/A ratio in data set [1] (in vivo, ip) is 0.3 to 0.5. Also, the “ED50 for antagonism” value in data set [1] is reported as 0.05 mg/kg. In addition, the selectivity ratio in “in vivo” (R/A ratio) was determined as 0.31. For the same compound, the “propensity to cause EPS” value in data set [3] is on record as “considerably greater propensity to cause EPS than chlorpromazine”. In addition, in data set [2], the ED50 stood at 0.16 mg/kg.
As to `O=c1[nH]c2ccccc2n1C1CCN(CCCC(c2ccc(F)cc2)c2ccc(F)cc2)CC1` [Pimozide], the R/A ratio in data set [1] (ED50 (i.p.) rotation / ED50 (i.p.) avoidance, high ratio predicts low potential to produce EPS) is 0.3 to 0.5. Also, in data set [1], the “ED50 for antagonism” value is 0.08 mg/kg. Moreover, the selectivity ratio in “in vivo” (setting [4]) is 0.3. In data set [3], the “propensity to cause EPS” value is “considerably greater propensity to cause EPS than chlorpromazine”. The ED50 in data set [2] is 0.24 mg/kg.
Turning to `CSc1ccc2c(c1)N(CCC1CCCCN1C)c1ccccc1S2` (centres unmarked) [Thioridazine], in data set [2] (rats, i.p.), the ED50 was determined as 5.1 mg/kg.
For `CN1CCN(CCCN2c3ccccc3Sc3ccc(C(F)(F)F)cc32)CC1` [Trifluoperazine], in data set [1] (in vivo, ip), the R/A ratio is 0.3 to 0.5. Also, in data set [1], the “ED50 for antagonism” value turned out to be 0.12 mg/kg. The selectivity ratio in “in vivo” (R/A ratio) is 0.46. In addition, the “propensity to cause EPS” value in data set [3] is on record as “considerably greater propensity to cause EPS than chlorpromazine”. In addition, in data set [2] (rats, i.p.), the ED50 stood at 0.26 mg/kg.
